Test results published in US8889874B2, “Imidazolone-chalcone derivatives as potential anticancer agent and process for the preparation thereof” (Council of Scientific and Industrial Research, priority 2010, dated 2014).
Read-outs that look alike come from different tables or passages of the source.

What was measured:
Experiment in all cases: NCI anticancer screen, SRB assay, 48 h
Type in all cases: cell-based, human
[1] = tested on: BT-549 (breast)
How it was run: (§1)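 Compounds were tested across fifty three human cancer cell lines from nine tumour types. Each line got a dose-response curve of at least five concentrations at 10-fold dilutions, with continuous drug exposure and sulforhodamine B protein staining to estimate viability or growth.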

[2] = tested on: COLO 205 (colon); conditions: for GI50: COLO 205
How it was run: as §1

[3] = tested on: HCC-2998 (colon)
How it was run: as §1

[4] = tested on: HCT-116 (colon)
How it was run: as §1

[5] = tested on: HCT-15 (colon)
How it was run: as §1

[6] = tested on: HOP-62 (non-small cell lung)
How it was run: as §1

[7] = tested on: HT29 (colon)
How it was run: as §1

[8] = tested on: LOX IMVI (melanoma)
How it was run: as §1

[9] = tested on: M14 (melanoma)
How it was run: as §1

[10] = tested on: MCF7 (breast)
How it was run: as §1

[11] = tested on: MDA-MB-231/ATCC (breast)
How it was run: as §1

[12] = tested on: MDA-MB-435 (melanoma)
How it was run: as §1

[13] = tested on: NCI-H322M (non-small cell lung)
How it was run: as §1

[14] = tested on: NCI-H522 (non-small cell lung)
How it was run: as §1

[15] = tested on: NCI/ADR-RES (ovarian)
How it was run: as §1

[16] = tested on: OVCAR-3 (ovarian)
How it was run: as §1

[17] = tested on: OVCAR-4 (ovarian)
How it was run: as §1

[18] = tested on: OVCAR-5 (ovarian)
How it was run: as §1

[19] = tested on: PC-3 (prostate)
How it was run: as §1

[20] = tested on: RPMI-8226 (leukemia cell line)
How it was run: as §1

[21] = tested on: RXF 393 (renal)
How it was run: as §1

[22] = tested on: SF-268 (CNS)
How it was run: as §1

[23] = tested on: SF-295 (CNS)
How it was run: as §1

[24] = tested on: SK-MEL-2 (melanoma)
How it was run: as §1

[25] = tested on: SNB-75 (CNS)
How it was run: as §1

[26] = tested on: TK-10 (renal)
How it was run: as §1

[27] = tested on: U251 (CNS)
How it was run: as §1

[28] = tested on: UACC-62 (melanoma)
How it was run: as §1

[29] = tested on: UO-31 (renal)
How it was run: as §1

[30] = 48 h exposure, SRB, read-out: GI50
[31] = Homo sapiens, 48 h exposure, SRB, read-out: GI50
[32] = Homo sapiens, read-out: pGI50 (-log of molar concentration causing 50% inhibition of net cell growth) (converted)

COc1ccc(-c2cn(-c3cccc(C(=O)/C=C/c4cc(OC)c(OC)c(OC)c4)c3)c(=O)[nH]2)cc1 [5b, 4-(4-methoxyphenyl)-1-3-[(E)-3-(3,4,5-trimethoxyphenyl)-2-propenoyl]phenyl-2,3-dihydro-1H-2-imidazolone]
pGI50 (-log of molar concentration causing 50% inhibition of net cell growth) [1]: 5.59
GI50 [1, 30]: 2590 nM
pGI50 (-log of molar concentration causing 50% inhibition of net cell growth) ([2]; COLO205): 5.74
GI50 [2, 30]: 1840 nM
pGI50 (-log of molar concentration causing 50% inhibition of net cell growth) [3]: 5.79
GI50 [3, 30]: 1640 nM
pGI50 (-log of molar concentration causing 50% inhibition of net cell growth) [4]: 6.43
GI50 [4, 30]: 370 nM
pGI50 (-log of molar concentration causing 50% inhibition of net cell growth) [5]: 5.86
GI50 [5, 30]: 1380 nM
pGI50 (-log of molar concentration causing 50% inhibition of net cell growth) [6]: 5.23
GI50 [6, 30]: 5910 nM
pGI50 (-log of molar concentration causing 50% inhibition of net cell growth) [7]: 5.89
GI50 [7, 30]: 1280 nM
pGI50 (-log of molar concentration causing 50% inhibition of net cell growth) [8]: 6.14
GI50 [8, 30]: 720 nM
pGI50 (-log of molar concentration causing 50% inhibition of net cell growth) [9]: 5.73
GI50 [9, 30]: 1850 nM
pGI50 (-log of molar concentration causing 50% inhibition of net cell growth) [10]: 6.36
GI50 [10, 30]: 440 nM
pGI50 (-log of molar concentration causing 50% inhibition of net cell growth) [11]: 5.26
GI50 [11, 30]: 5480 nM
pGI50 (-log of molar concentration causing 50% inhibition of net cell growth) [12]: 5.73
GI50 [12, 30]: 1860 nM
pGI50 (-log of molar concentration causing 50% inhibition of net cell growth) [13]: 5.58
GI50 [13, 30]: 2660 nM
pGI50 (-log of molar concentration causing 50% inhibition of net cell growth) [14]: 5.73
GI50 [14, 30]: 1850 nM
pGI50 (-log of molar concentration causing 50% inhibition of net cell growth) ([15]; NCI/ADR-RES): 5.77
GI50 ([15]; NCl/ADR-RES, 48 h exposure, SRB, read-out: GI50): 1700 nM
pGI50 (-log of molar concentration causing 50% inhibition of net cell growth) [16]: 5.75
GI50 [16, 30]: 1780 nM
pGI50 (-log of molar concentration causing 50% inhibition of net cell growth) [17]: 5.45
GI50 [17, 30]: 3570 nM
pGI50 (-log of molar concentration causing 50% inhibition of net cell growth) [18]: 5.58
GI50 [18, 30]: 2640 nM
pGI50 (-log of molar concentration causing 50% inhibition of net cell growth) ([19]; PC-3): 5.21
GI50 ([19]; PC-3, 48 h exposure, SRB, read-out: GI50): 6220 nM
GI50 ([19]; one prostate cancer cell line (PC-3), exposure at least 48 hrs, read-out: GI50): 6220 nM
pGI50 (-log of molar concentration causing 50% inhibition of net cell growth) [20]: 6.04
GI50 [20, 30]: 920 nM
GI50 ([21]; RXF 393, 48 h exposure, SRB, read-out: GI50): 1920 nM
pGI50 (-log of molar concentration causing 50% inhibition of net cell growth) ([21]; RXF-393): 5.72
pGI50 (-log of molar concentration causing 50% inhibition of net cell growth) [22]: 5.49
GI50 [22, 30]: 3210 nM
pGI50 (-log of molar concentration causing 50% inhibition of net cell growth) [23]: 5.31
GI50 [23, 30]: 4950 nM
pGI50 (-log of molar concentration causing 50% inhibition of net cell growth) [24]: 5.58
GI50 [24, 30]: 2630 nM
pGI50 (-log of molar concentration causing 50% inhibition of net cell growth) [25]: 5.34
GI50 [25, 30]: 4590 nM
pGI50 (-log of molar concentration causing 50% inhibition of net cell growth) [26]: 5.52
GI50 [26, 30]: 3040 nM
pGI50 (-log of molar concentration causing 50% inhibition of net cell growth) [27]: 6.06
GI50 [27, 30]: 880 nM
pGI50 (-log of molar concentration causing 50% inhibition of net cell growth) [28]: 5.69
GI50 [28, 30]: 2060 nM
pGI50 (-log of molar concentration causing 50% inhibition of net cell growth) [29]: 5.72
GI50 [29, 30]: 1910 nM

O=C(/C=C/c1cccc(O)c1)c1cccc(-n2cc(-c3ccc4ccccc4c3)[nH]c2=O)c1 [12b, 1-3-[(E)-3-(3-hydroxyphenyl)-2-propenoyl]phenyl-4-(2-naphthyl)-2,3-dihydro-1H-2-imidazolone]
GI50 [1, 31]: 1890 nM
GI50 [1, 32]: 1910 nM
GI50 ([2]; Homo sapiens, COLO205, read-out: pGI50 (-log of molar concentration causing 50% inhibition of net cell growth) (converted)): 2090 nM
GI50 [2, 31]: 2090 nM
GI50 [3, 31]: 2130 nM
GI50 [3, 32]: 2140 nM
GI50 [4, 31]: 400 nM
GI50 [4, 32]: 398 nM
GI50 [5, 31]: 1560 nM
GI50 [5, 32]: 1550 nM
GI50 [6, 31]: 2260 nM
GI50 [6, 32]: 2240 nM
GI50 ([7]; Homo sapiens, HT-29, 48 h exposure, SRB, read-out: GI50): 1540 nM
GI50 ([7]; Homo sapiens, HT-29, read-out: pGI50 (-log of molar concentration causing 50% inhibition of net cell growth) (converted)): 1550 nM
GI50 [8, 31]: 850 nM
GI50 [8, 32]: 851 nM
GI50 [9, 31]: 1490 nM
GI50 [9, 32]: 1480 nM
GI50 [10, 31]: 470 nM
GI50 [10, 32]: 468 nM
GI50 [11, 31]: 1660 nM
GI50 [11, 32]: 1660 nM
GI50 [12, 31]: 1710 nM
GI50 [12, 32]: 1700 nM
GI50 [13, 31]: 1660 nM
GI50 [13, 32]: 1660 nM
GI50 [14, 31]: 1290 nM
GI50 [14, 32]: 1290 nM
GI50 ([15]; Homo sapiens, NCI/ADR-RES, NCl/ADR-RES, 48 h exposure, SRB, read-out: GI50): 1550 nM
GI50 ([15]; Homo sapiens, NCI/ADR-RES, read-out: pGI50 (-log of molar concentration causing 50% inhibition of net cell growth) (converted)): 1550 nM
GI50 [16, 31]: 1330 nM
GI50 [16, 32]: 1320 nM
GI50 [17, 31]: 1680 nM
GI50 [17, 32]: 1700 nM
GI50 [18, 31]: 1890 nM
GI50 [18, 32]: 1910 nM
GI50 ([19]; Homo sapiens, PC-3, read-out: pGI50 (-log of molar concentration causing 50% inhibition of net cell growth) (converted)): 1860 nM
GI50 ([19]; Homo sapiens, one prostate cancer cell line (PC-3), exposure at least 48 hrs, read-out: GI50): 1850 nM
GI50 [20, 31]: 1670 nM
GI50 [20, 32]: 1660 nM
GI50 ([21]; Homo sapiens, RXF 393, 48 h exposure, SRB, read-out: GI50): 1410 nM
GI50 ([21]; Homo sapiens, RXF-393, read-out: pGI50 (-log of molar concentration causing 50% inhibition of net cell growth) (converted)): 1410 nM
GI50 [22, 31]: 1730 nM
GI50 [22, 32]: 1740 nM
GI50 [23, 31]: 1440 nM
GI50 [23, 32]: 1450 nM
GI50 [24, 31]: 2310 nM
GI50 [24, 32]: 2290 nM
GI50 [25, 31]: 1880 nM
GI50 [25, 32]: 1860 nM
GI50 [26, 31]: 3450 nM
GI50 [26, 32]: 3470 nM
GI50 ([27]; Homo sapiens, U-251, 48 h exposure, SRB, read-out: GI50): 1090 nM
GI50 ([27]; Homo sapiens, U-251, read-out: pGI50 (-log of molar concentration causing 50% inhibition of net cell growth) (converted)): 1100 nM
GI50 [28, 31]: 1800 nM
GI50 [28, 32]: 1820 nM
GI50 [29, 31]: 1260 nM
GI50 [29, 32]: 1260 nM
